{"source": "patent US5512573A", "about": "“Use of phthaloylhydrazide derivatives as anti-hypoxic and defensive agents” (priority 1993, dated 1996)", "key": {"mice, rats": {"tested_on": "mice, rats", "details": "oral and i.p., 500 and 2500 mg/kg, 14 days", "description": "Acute toxicity tests were performed on two animal species (mice, rats). More than 80 mice and 100 rats were used. The pharmaceutical was administered orally and intraperitoneally in doses of 500 and 2500 mg/kg (individual doses). The period of observation was 14 days."}, "[1]": {"tested_on": "S. typhi TA 100, TA 102, and TA 97", "test": "Mutagenicity, Ames' bacterial testing method", "details": "0.01 and 2 mg/ml; rat liver microsomes", "description": "Mutagenicity was measured by means of Ames' bacterial testing method. The tests were performed with strains of S. typhi TA 100, TA 102, and TA 97. The microsome activator method was used whereby rat liver was induced with methylcolanthrene."}, "guinea pigs": {"tested_on": "guinea pigs", "excerpt": "The allergenic activity of the drug was examined in guinea pigs."}, "male rats": {"tested_on": "male rats", "description": "The effect of the sodium salt of 5-aminophthaloylhydrazide on blood pressure (BP) was examined in male rats weighing 230 to 270 g, in a controlled experiment where the rats were anesthetized with urethane. The blood pressure was recorded on tape by means of an electrical kymograph.\nAt the same time, we recorded the electrocardiogram in the second standard position as well as any changes in frequency and depth of respiration by means of a Morey capsule. We administered 5-aminophthaloylhydrazide in the femoral vein in the form of an aqueous solution prepared in a 2% sodium bicarbonate solution (pH=8.2), in doses of 40 mg/kg, 80 mg/kg and 50 mg/kg. Research on 5-aminophthaloylhydrazide was performed on 16 rats."}, "transplant rejection": {"tested_on": "transplant rejection", "test": "Skin transplant from another animal (description)", "format": "in vivo", "details": "100 to 200 mg/kg", "excerpt": "Treatment started on the second day following a skin transplant from another animal and continued for 45 to 50 days."}, "animal organisms": {"tested_on": "animal organisms", "test": "Pharmacological studies, general toxicity statement", "details": "in vivo"}, "[2]": {"tested_on": "high-level hypoxia in male mice", "description": "Experiments to test the resistance of the animals to high-level hypoxia were performed on 120 male mice weighing 18 to 20 g, and having reached sexual maturity.\nFive minutes before the experiment, the animals were given the following doses intramuscularly:\nthe first group (control group), 0.1 ml of physiological solution;\nthe second group (test group), a 20% oil solution in a dose of 30 mg/kg;\nthe third group, 5-aminophthaloylhydrazide in a dose of 30 mg/kg;\nthe fourth group, 5-aminophthaloylhydrazide in a dose of 60 mg/kg;\nthe fifth group, 5-aminophthaloylhydrazide in a dose of 80 mg/kg;\nthe sixth group, 5-aminophthaloylhydrazide in a dose of 150 mg/kg;\nthe seventh group, the drug in a dose of 200 mg/kg.\nThe period of tolerance to hypoxia was determined by raising the animals to an altitude of 10,400 meters at the speed of 100 meters per second."}, "[3]": {"tested_on": "brain ischemia (carotid tying) in mice", "test": "Example 4: carotid tying and release in mice", "format": "in vivo", "description": "We performed experiments on 50 mice of the pyramid by tying the carotid under light anesthesia. After 7 minutes, we released the tie and restored the blood circulation in the ischemic area."}, "[4]": {"tested_on": "skin transplant rejection in chinchillas", "details": "intravenous, p<0.01", "description": "The experiments involved 30 chinchillas from which a strip of skin was removed measuring 2×2 cm. The resulting lesion was covered by an outside transplant. The animals were divided into three groups.\nThe first group was treated with traditional therapy (prednisolone and cyclosporine); the second group was given 5aminophthaloylhydrazide daily in a dose of 150 mg/kg; the third group received a combined treatment.\nTo assess the efficacy of the drug, the period before the rejection was measured and morphological studies were conducted."}, "psoriasis": {"tested_on": "psoriasis", "description": "Patient, ill for 5 years. Was cured in the hospital several times during that period. Complained about itching, general weakness, unpleasant sensations in parts of the skin. […] Diagnosis: psoriasis approaching the acute phase.\nThe drug was administered intravenously to the patient."}, "[5]": {"test": "Summary of experiments on phthaloylhydrazide derivatives", "format": "in vivo"}, "[6]": {"tested_on": "Corazolum- and strychnine-induced convulsions", "details": "40 and 80 mg/kg"}, "[7]": {"tested_on": "leukocytes in ischemic tissue; surviving animals", "details": "intramuscular injections, p>0.05"}, "physchem [8]": {"test": "physchem"}, "physchem [9]": {"test": "physchem", "details": "octanol/water, pH 7.4"}}, "note": "Where two headings read alike, the source gives them in different places."}
{"molecule": "Nc1cccc2c(=O)[nH][nH]c(=O)c12", "note": "[5-aminophthaloylhydrazide, 5-amino-2,3-dihydrophthalazine-1,2 dione]", "values": [{"measurement": "morphological alteration of liver, kidneys, heart and brain", "setting": "mice, rats", "value": "No morphological alteration was observed"}, {"measurement": "percentage of lethal outcome", "setting": "mice, rats; vs control group", "value": "did not exceed that of the control group"}, {"measurement": "inhibitory or mutagenic activity", "setting": "[1]", "value": "does not posses inhibitory or mutagenic activity"}, {"measurement": "local irritation", "setting": "guinea pigs; 20 to 100 mg", "value": "no symptoms of local irritation"}, {"measurement": "erythema at the site of administration", "setting": "guinea pigs; even large doses", "value": "No erythema was observed at the site of administration"}, {"measurement": "signs of allergy", "setting": "guinea pigs; subcutaneously or orally", "value": "No signs of allergy were observed"}, {"measurement": "electrocardiogram parameters", "setting": "male rats; 20 mg and 50 mg/kg", "value": "no changes were observed in the electrocardiogram parameters of the heart"}, {"measurement": "respiratory functions", "setting": "male rats; 20 mg and 50 mg/kg", "value": "no impairment of the respiratory functions was observed"}, {"measurement": "negative effect on the cardiovascular system or the respiration", "setting": "male rats; 40 and 50 mg/kg", "value": "did not present any evidence of a negative effect on the cardiovascular system or the respiration"}, {"measurement": "rise in blood pressure compared to the initial level", "setting": "male rats; i.v. 1% solution, 0.6 ml/minute, average", "value": "1.57±5.93", "unit": "%"}, {"measurement": "sudden fluctuations in the increase in blood pressure", "setting": "male rats; i.v., 40 mg or 50 mg/kg", "value": "No sudden fluctuations in the increase in blood pressure were observed"}, {"measurement": "time for blood pressure to return to the initial level", "setting": "male rats; i.v., average", "value": "≤ 30", "unit": "min"}, {"measurement": "fluctuations in the level of blood pressure compared to the beginning", "setting": "male rats; thirty minutes after administration, average", "value": "2.79±0.72"}, {"measurement": "effectiveness vs hormonal drugs (corticosteroids)", "setting": "transplant rejection", "value": "exceeds the hormonal drugs with long-term action known thus far (corticosteroids)"}, {"measurement": "toxicity in animal organisms", "setting": "animal organisms", "value": "absence of toxicity"}, {"measurement": "therapeutic effectiveness vs Dibunolo", "setting": "[2]; 30 mg/kg", "value": "less therapeutically effective than the known antioxidant Dibunolo"}, {"measurement": "therapeutic effectiveness vs Dibunolo", "setting": "[2]; 100 mg, p<0.001", "value": "exceeded that of Dibunolo in a reliable manner"}, {"measurement": "dose with the greatest therapeutic effect", "setting": "[2]; intramuscular", "value": 80, "unit": "mg/kg"}, {"measurement": "extension of life under high-level hypoxia", "setting": "[2]; intramuscular, all doses", "value": "extended life under conditions of high-level hypoxia in all cases"}, {"measurement": "therapeutic effect on last increase in dose", "setting": "[2]; last increase in administered amount", "value": "did not increase the therapeutic effect achieved"}, {"measurement": "percentage of surviving animals", "setting": "[3]; 30 mg/kg, p>0.05", "value": "did not increase"}, {"measurement": "cases with symptoms of neurological impairment", "setting": "[3]; 100 mg/kg intramuscular", "value": 3, "unit": "cases"}, {"measurement": "effectiveness of intramuscular administration", "setting": "[3]; 100 mg/kg intramuscular", "value": "the intramuscular administration of the drug was not effective"}, {"measurement": "surviving animals", "setting": "[3]; 100 mg/kg intramuscular", "value": "Six out of 10"}, {"measurement": "cases without symptoms of neurological impairment", "setting": "[3]; 100 mg/kg intravenous", "value": 8, "unit": "cases"}, {"measurement": "surviving animals", "setting": "[3]; 100 mg/kg intravenous", "value": "9 out of 10"}, {"measurement": "cases with symptoms of damage to the central nervous system", "setting": "[3]; 150 mg/kg", "value": 2, "unit": "cases"}, {"measurement": "surviving animals", "setting": "[3]; 150 mg/kg", "value": 80, "unit": "%"}, {"measurement": "survival rate on further dose increase", "setting": "[3]; above 100 mg/kg", "value": "did not lead to a reliable increase in the survival rate"}, {"measurement": "surviving animals without symptoms of neurological impairment", "setting": "[3]; two administrations of 100 mg/kg, 12-hour interval", "value": 9, "unit": "animals"}, {"measurement": "rejection process vs traditional therapy", "setting": "[4]", "value": "slowed the rejection process down considerably"}, {"measurement": "response to subsequent treatment cycle", "setting": "psoriasis; 12 days", "value": "made it possible to eliminate the main symptoms and led to a long-term remission of the main symptoms"}, {"measurement": "residual pustules and papules", "setting": "psoriasis; flexor parts of the hands", "value": "Individual pustules and papules on the flexor parts of the hands remained"}, {"measurement": "time to return of acute symptoms", "setting": "psoriasis; human, in vivo", "value": 4, "unit": "months"}, {"measurement": "clinical symptoms", "setting": "psoriasis; intravenous, after 10 days of treatment", "value": "the itching and weakness disappeared, the temperature dropped and the skin symptoms disappeared"}, {"measurement": "affected parts of the skin tissue", "setting": "psoriasis; intravenous, day 20", "value": "the affected parts of the skin tissue had shrunk"}, {"measurement": "pharmacological activity, anti-hypoxic and defensive action", "setting": "[5]; doses of 10 to 300 mg/kg", "value": "possess a pronounced pharmacological activity"}, {"measurement": "therapeutic effects", "setting": "[5]; in vivo", "value": "major therapeutic effects"}, {"measurement": "stability", "setting": "anhydrous conditions", "value": "stable in anhydrous conditions (can be preserved for over one year)"}, {"measurement": "stability in aqueous solutions", "setting": "aqueous solutions", "value": "sometimes unstable in aqueous solutions"}, {"measurement": "reduction of induced convulsions", "setting": "[6]", "value": "did not reduce the induced convulsions"}, {"measurement": "prevention of Corazolum- and strychnine-induced convulsions", "setting": "[6]; preventive administration", "value": "did not prevent Corazolum- and strychnine-induced convulsions"}, {"measurement": "percentage of surviving animals", "setting": "[7]", "value": 60, "unit": "%"}, {"measurement": "effects of acute focal hypoxia", "setting": "acute focal hypoxia; in a series of cases", "value": "it was possible to prevent the effects of acute focal hypoxia"}, {"measurement": "therapeutic effect by number of administrations", "setting": "acute focal hypoxia; single vs two administrations at 12-hour intervals", "value": "a single administration of the drug proved insufficient and the main therapeutic effect was obtained after two administrations"}, {"measurement": "clinical picture of psoriasis", "setting": "psoriasis patients; 12 to 20 mg/kg daily", "value": "the itching disappeared, the temperature went down and the surface area of the affected zone shrunk"}, {"measurement": "epithelization of the pustules", "setting": "psoriasis patients; drug plus topical 4% solution in 10% DMSO", "value": "epithelization of the pustules occurred"}, {"measurement": "solubility", "setting": "physchem [8]; pH 6.5", "value": 2, "unit": "mM"}, {"measurement": "solubility", "setting": "physchem [8]; pH 7.4", "value": 12, "unit": "mM"}, {"measurement": "logD", "setting": "physchem [9]", "value": -0.699}]}
